Measured values reported in patent publication US20020009527A1, “CONTAMINATION-RESISTANT ANIMAL FEEDSTUFFS” (BOBBY J BLAND, priority 1992, published 2002).
Where two headings read alike, the source gives them in different places.

Columns and labels:
Escherichia coli [1] = tested on: Escherichia coli
Description: Poultry starter mash (8000 g) was distributed in one gallon glass jars (2000 g/jar). The mash was autoclaved at 121° C. and 15 psi for one hour on two consecutive days. The sterile poultry starter mash was mixed thoroughly and subsampled using a Humboldt sample splitter to obtain seven 500 g subsamples. […] After treatment the samples were stored at 24° C. for 7 days prior to the recontamination.
The identity of an isolate of Escherichia coli obtained from poultry feed was confirmed by biochemical and serological tests. The isolate was used to inoculate milk dilution bottles containing 90 ml of nutrient both. The inoculated bottles were incubated at 35° C. for 18-24 hours. After incubation the contents of several milk dilution bottles were combined in a sterile 1000 ml Erlenmeyer flask, mixed and the level of Escherichia coli determined by serially diluting the nutrient broth with buffered phosphate. The dilutions were plated onto MacConkey's agar. The inoculated plates were incubated at 35° C. for 18-24 hours. After incubation, the number of E. coli colonies was counted.
After seven days of storage, the subsamples (500 g) were individually inoculated with 20 ml of a nutrient broth culture of E. coli (10^6 colonies/ml). The inoculated feed was transferred to sterile one quart containers with screw cap lids. After 24 hours incubation at 25° C., the treatment samples were split to obtain log subsamples. Each subsample was placed into a milk dilution bottle containing 90 ml of buffered phosphate. The bottles were placed on a wrist action shaker and agitated for 30 minutes. The samples were serially diluted with buffered phosphate and the dilutions plated onto MacConkey's agar (MA) or Hektoen Enteric agar (HEA). The inoculated plates were incubated at 35° C. for 18-24 hours. After incubation, the number of E. coli colonies was counted. […] In this procedure a 25 g subsample was incubated in 225 ml lactose broth for 18-20 hours at 35° C. The inoculated broth was streaked on plates of MacConkey's agar and incubated for 24 hours at 35° C.
The procedure of Example 8 was repeated using an inoculum containing 10^4 colonies/ml of E. coli.

Salmonella typhimurium = settings: hydraulic nozzle; 1.32 lb/ton; inoculated after 7 days storage; 24 h incubation
Description: Poultry starter mash was distributed in one gallon glass jars (2000 g/jar). The mash was autoclaved at 121° C. and 15 psi for one hour on two consecutive days. The sterile poultry starter mash was mixed thoroughly and subsampled using a Humboldt sample splitter to obtain seven 500 g subsamples. […] After treatment the samples were stored in paper bags at 24° C. prior to the recontamination.
An isolate of Salmonella typhimurium was obtained from poultry feed and was serotyped by the United States Department of Agriculture (USDA) National Veterinary Services Laboratory in Ames, Iowa. The isolate was used to inoculate milk dilution bottles containing 90 ml of nutrient broth. The inoculated bottles were incubated at 35° C. for 18-24 hours. After incubation, the contents of several milk dilution were combined in a sterile 1000 ml Erlenmeyer flask and mixed. The level of Salmonella typhimurium was determined by serially diluting the nutrient broth with buffered phosphate solution and the dilutions plated on modified lysine iron agar. The inoculated plates were incubated at 35° C. for 18-24 hours. After incubation, the number of Salmonella typhimurium colonies was counted.
After 7 days of storage, the subsamples of poultry starter mash (500 g) were individually inoculated with 20 ml of the nutrient broth culture of S. typhimurium (10^3 colonies/gram). […]

E. coli = tested on: E. coli
Description: The term “resistant to contamination by pathogenic bacteria” means that a challenge with 1000 colonies per gram of feed results in death of substantially all the bacteria within 48 to 72 hours. […] Sampling procedures for obtaining representative samples of feed are described in Example 16, so that the coefficient of variation can be readily determined.

Escherichia coli [2] = settings: fine mist (43 microns); all quantity levels
Description: A sterilized poultry starter mash (500 grams/treatment quantity level) was treated with 37 wt. % formaldehyde solution in quantities of 0.66, 1.33 and 2.00 pounds dry weight of formaldehyde per ton. One set of samples was treated with a coarse spray (270 microns) at 1.8 gal/hr and another was treated with fine mist (43 microns) at 25.5 gal/hr. Each sample of 500 grams was challenged with 20 ml of a liquid inoculum of Escherichia coli (10^6 colonies/ml) one week after treatment.

[3] = 1.0 pound formaldehyde (dry wt.) per ton of feed
Description: Chickens (1,400,000 broilers) were raised with steam pelletized formaldehyde-treated feed and 250,000 broilers were raised with conventional steam pelletized feed. This test was conducted from the time the chicks were a day old until market weight which is 7 to 8 weeks.

C=O [Formaldehyde, formaldehyde]
E. coli colonies/g (Escherichia coli [1]; atomizing nozzle, 0.66 lb/ton, inoculum 10^6 colonies/ml (Example 8)): 1.11 × 10^2 COLONIES/GRAM
E. coli colonies/g (Escherichia coli [1]; hydraulic nozzle, 0.66 lb/ton, inoculum 10^4 colonies/ml (Example 9)): 8.78 × 10^3 COLONIES/GRAM
E. coli colonies/g (Escherichia coli [1]; hydraulic nozzle, 0.66 lb/ton, inoculum 10^6 colonies/ml (Example 8)): 2.74 × 10^5 COLONIES/GRAM
E. coli colonies/g (Escherichia coli [1]; hydraulic nozzle, 1.32 lb/ton, inoculum 10^4 colonies/ml (Example 9)): 4.33 × 10^3 COLONIES/GRAM
E. coli colonies/g (Escherichia coli [1]; hydraulic nozzle, 1.32 lb/ton, inoculum 10^6 colonies/ml (Example 8)): 3.67 × 10^3 COLONIES/GRAM
E. coli colonies/g (Escherichia coli [1]; hydraulic nozzle, 2.00 lb/ton, inoculum 10^4 colonies/ml (Example 9)): 3.33 × 10^2 COLONIES/GRAM
E. coli colonies/g (Escherichia coli [1]; hydraulic nozzle, 2.00 lb/ton, inoculum 10^6 colonies/ml (Example 8)): 1.04 × 10^2 COLONIES/GRAM
S. typhimurium colonies per gram of feed (Salmonella typhimurium): 2.94 × 10^2 COLONIES/GRAM
resistance to contamination (time) (E. coli; 2 lbs. dry wt. of formaldehyde/ton, 2.0% CV): about 60 days
resistance to contamination (time) (E. coli; 4 lbs. dry wt. of formaldehyde per ton of finished feed, 7% CV): about 30 days
further time free of detectable E. coli (test then discontinued) (Escherichia coli [2]): 60 days
time after inoculation until free of detectable E. coli (Escherichia coli [2]): ≤ 48 h
MORTALITY ([3]; broilers, day old to market weight (7 to 8 weeks)): 6%
FEED CONVERSION ([3]; pounds of feed required to produce one pound live weight gain): 2.25
